Measurements published in the supplement of paper PMC10307832.

Legend:
Test in all cases: relative viability (nuclei count vs DMSO), 5 days (fraction); higher = more cells survive
NCI-H2126 = system: NCI-H2126
How it was run: (§1)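 Relative viability equals treated-well nuclei counts divided by vehicle-well nuclei counts. Counts came from 4× images of lung cancer cell lines grown in 1536-well plates for 5 days after pin-tool dosing on the day after seeding. Dosing used one drug alone or a fixed anchor-drug dose plus five library-drug doses (not always all listed) in √10 steps, and values are medians of duplicate plates.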

SW 1573 = system: SW 1573
How it was run: as §1

NCI-H2085 = system: NCI-H2085
How it was run: as §1

NCI-H1993 = system: NCI-H1993
How it was run: as §1

LC-2-ad = system: LC-2-ad
How it was run: as §1

LU99A = system: LU99A
How it was run: as §1

ABC-1 = system: ABC-1
How it was run: as §1

NCI-H2023 = system: NCI-H2023
How it was run: as §1

NCI-H838 = system: NCI-H838
How it was run: as §1

EPLC-272H = system: EPLC-272H
How it was run: as §1

UMC-11 = system: UMC-11
How it was run: as §1

HCC-15 = system: HCC-15
How it was run: as §1

HARA = system: HARA
How it was run: as §1

PC-14 = system: PC-14
How it was run: as §1

COR-L23 = system: COR-L23
How it was run: as §1

NCI-H1651 = system: NCI-H1651
How it was run: as §1

NCI-H650 = system: NCI-H650
How it was run: as §1

NCI-H1355 = system: NCI-H1355
How it was run: as §1

NCI-H358 = system: NCI-H358
How it was run: as §1

NCI-H1915 = system: NCI-H1915
How it was run: as §1

NCI-H2347 = system: NCI-H2347
How it was run: as §1

HCC-44 = system: HCC-44
How it was run: as §1

HOP-62 = system: HOP-62
How it was run: as §1

COc1nc(C)cnc1NS(=O)(=O)c1cccnc1-c1ccc(-c2nnco2)cc1 [Zibotentan] + O=C(c1cc(Cc2n[nH]c(=O)c3ccccc23)ccc1F)N1CCN(C(=O)C2CC2)CC1 [Olaparib] (partner 8 µM)
relative viability (NCI-H2126; first compound 0.08 µM): 0.945
relative viability (NCI-H2126; first compound 0.253 µM): 0.942
relative viability (NCI-H2126; first compound 0.8 µM): 0.89
relative viability (NCI-H2126; first compound 2.53 µM): 0.951
relative viability (SW 1573; first compound 0.08 µM): 0.557
relative viability (SW 1573; first compound 0.8 µM): 0.544
relative viability (SW 1573; first compound 2.53 µM): 0.459
relative viability (NCI-H2085; first compound 0.08 µM): 0.742
relative viability (NCI-H2085; first compound 0.253 µM): 0.734
relative viability (NCI-H2085; first compound 0.8 µM): 0.856
relative viability (NCI-H2085; first compound 2.53 µM): 0.801
relative viability (NCI-H1993; first compound 0.08 µM): 1.01
relative viability (NCI-H1993; first compound 0.253 µM): 0.842
relative viability (NCI-H1993; first compound 0.8 µM): 0.853
relative viability (NCI-H1993; first compound 2.53 µM): 1.08
relative viability (LC-2-ad; first compound 0.08 µM): 0.68
relative viability (LC-2-ad; first compound 0.253 µM): 0.682
relative viability (LC-2-ad; first compound 0.8 µM): 0.721
relative viability (LC-2-ad; first compound 2.53 µM): 0.71
relative viability (LU99A; first compound 0.08 µM): 0.269
relative viability (LU99A; first compound 0.253 µM): 0.259
relative viability (LU99A; first compound 0.8 µM): 0.181
relative viability (LU99A; first compound 2.53 µM): 0.255
relative viability (ABC-1; first compound 0.08 µM): 1
relative viability (ABC-1; first compound 0.253 µM): 0.527
relative viability (ABC-1; first compound 0.8 µM): 0.8
relative viability (ABC-1; first compound 2.53 µM): 0.819
relative viability (NCI-H2023; first compound 0.08 µM): 0.438
relative viability (NCI-H2023; first compound 0.253 µM): 0.415
relative viability (NCI-H2023; first compound 0.8 µM): 0.516
relative viability (NCI-H2023; first compound 2.53 µM): 0.469
relative viability (NCI-H838; first compound 0.08 µM): 0.756
relative viability (NCI-H838; first compound 0.253 µM): 0.747
relative viability (NCI-H838; first compound 0.8 µM): 0.827
relative viability (NCI-H838; first compound 2.53 µM): 0.849
relative viability (EPLC-272H; first compound 0.253 µM): 0.732
relative viability (EPLC-272H; first compound 0.8 µM): 0.991
relative viability (EPLC-272H; first compound 2.53 µM): 0.754
relative viability (UMC-11; first compound 0.08 µM): 0.321
relative viability (UMC-11; first compound 0.253 µM): 0.409
relative viability (UMC-11; first compound 0.8 µM): 0.44
relative viability (UMC-11; first compound 2.53 µM): 0.438
relative viability (HCC-15; first compound 0.08 µM): 0.717
relative viability (HCC-15; first compound 0.253 µM): 0.703
relative viability (HCC-15; first compound 0.8 µM): 0.774
relative viability (HCC-15; first compound 2.53 µM): 0.649
relative viability (HARA; first compound 0.08 µM): 0.856
relative viability (HARA; first compound 0.8 µM): 0.455
relative viability (HARA; first compound 2.53 µM): 0.883
relative viability (PC-14; first compound 0.08 µM): 0.206
relative viability (PC-14; first compound 0.253 µM): 0.271
relative viability (PC-14; first compound 0.8 µM): 0.276
relative viability (PC-14; first compound 2.53 µM): 0.315
relative viability (COR-L23; first compound 0.08 µM): 0.324
relative viability (COR-L23; first compound 0.253 µM): 0.284
relative viability (COR-L23; first compound 0.8 µM): 0.395
relative viability (COR-L23; first compound 2.53 µM): 0.352
relative viability (NCI-H1651; first compound 0.08 µM): 0.172
relative viability (NCI-H1651; first compound 0.253 µM): 0.191
relative viability (NCI-H1651; first compound 0.8 µM): 0.19
relative viability (NCI-H1651; first compound 2.53 µM): 0.184
relative viability (NCI-H650; first compound 0.08 µM): 0.413
relative viability (NCI-H650; first compound 0.253 µM): 0.395
relative viability (NCI-H650; first compound 0.8 µM): 0.52
relative viability (NCI-H650; first compound 2.53 µM): 0.443
relative viability (NCI-H1355; first compound 0.08 µM): 0.829
relative viability (NCI-H1355; first compound 0.253 µM): 0.691
relative viability (NCI-H1355; first compound 0.8 µM): 0.751
relative viability (NCI-H1355; first compound 2.53 µM): 0.756
relative viability (NCI-H358; first compound 0.08 µM): 0.735
relative viability (NCI-H358; first compound 0.253 µM): 0.323
relative viability (NCI-H358; first compound 2.53 µM): 0.689
relative viability (NCI-H1915; first compound 0.08 µM): 0.31
relative viability (NCI-H1915; first compound 0.253 µM): 0.277
relative viability (NCI-H1915; first compound 0.8 µM): 0.254
relative viability (NCI-H1915; first compound 2.53 µM): 0.24
relative viability (NCI-H2347; first compound 0.08 µM): 0.47
relative viability (NCI-H2347; first compound 0.253 µM): 0.596
relative viability (NCI-H2347; first compound 0.8 µM): 0.635
relative viability (NCI-H2347; first compound 2.53 µM): 0.615
relative viability (HCC-44; first compound 0.08 µM): 0.958
relative viability (HCC-44; first compound 0.253 µM): 0.965
relative viability (HCC-44; first compound 0.8 µM): 0.98
relative viability (HCC-44; first compound 2.53 µM): 0.957
relative viability (HOP-62; first compound 0.08 µM): 0.429
relative viability (HOP-62; first compound 0.253 µM): 0.34
relative viability (HOP-62; first compound 0.8 µM): 0.503
relative viability (HOP-62; first compound 2.53 µM): 0.502
